These results are taken from patent US20240368150A1 (Hoffmann-La Roche Inc., priority 2021, published 2024).

pEC50, pIC50: −log10 of the molar value. Read-outs that look alike come from different tables or passages of the source.

Assay [1] relates to primary human T-cells. The assay is described as follows: Proliferation assay after 5 days (CellTiter-Glo, CD3 stimulation; PBS counter screen). The class given is cell-based. Particulars: CD3 stimulation; for pEC50: primary human T-cells, CellTiter-Glo after 5 days, EC50 of fitted sigmoidal curve, read-out: Tcell Proliferation CD3 EC50; for Emax: read-out: Emax proliferation (% activation). In a few lines:
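Cpds added to medium-only plates; 5 d culture. Readout CellTiter-Glo 2.0 (equal vol), RT 45 min equilibration, 15 min rocking RT, luminescence. ATP signal taken as cell number.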

The target in assay [2] is hDGKzeta(1-928)-N-His (Homo sapiens (Human), UniProt Q13574). Description: DGKzeta ADP Glo assay (in vitro DGK inhibition). Particulars: DLG 125 uM, ATP 50 μM, DGK ζ 2 nM, 1 hour reaction. It is filed as biochemical. The procedure: (§1) DGK α and ζ kinase use ATP to phosphorylate the substrate 1,2-dilauroyl-sn-glycerol (DLG, incorporated in the liposomes). ATP is converted to ADP as a result of this enzymatic reaction. After the kinase reaction, an ATP-depletion reagent is added to terminate the kinase reaction and deplete any remaining ATP, leaving only ADP. Second, a detection reagent is added to simultaneously convert ADP to ATP and allow the newly synthesized ATP to be converted to light using a coupled luciferase/luciferin reaction.
(§2) Purification of both enzymes was performed as previously described by Takahashi et al., PeerJ, 2018 (Takahashi, D.; Sakane, F. Expression and purification of human diacylglycerol kinase alpha from baculovirus-infected insect cells for structural studies. PeerJ 2018, 6, No. e5449).
(§3) A concentrated liposome solution was prepared in assay buffer without DTT and BSA: 2 mM of DLG in 21 mM of total liposome (2 mM DLG/8 mM PS/11 mM PC). […] The reactions were started by addition of DGK α and ζ kinases at 4 nM and 2 nM final concentrations, respectively. After 1 hour reaction, the amount of ADP formed was detected with the ADP-Glo kinase assay (Promega) according to the manufacturer instructions. Compounds were added in 11-points dose response, starting at […], 1:3 dilutions, with a final DMSO concentration of 2%. The multidrop combi was used as a liquid handler and luminescence was read with 0.5 s by the envision reader (PE).

Assay [3] has as its system primary human T-cells.
Assay [4] deals with hDGKalpha(1-735)-N-His (Homo sapiens (Human), UniProt P23743). Description: DGKalpha ADP Glo assay (in vitro DGK inhibition). The class given is biochemical. Particulars: DLG 125 uM, ATP 25 μM, DGK α 4 nM, 1 hour reaction. As to the method: as §1, §2, §3
Setting [5] is: Homo sapiens, T-cell, 120 h, 5 days, normalized to reference compound A1 as stimulator control = 100%, DMSO neutral control.

Chain of hDGKzeta(1-928)-N-His (Q13574 whole entry): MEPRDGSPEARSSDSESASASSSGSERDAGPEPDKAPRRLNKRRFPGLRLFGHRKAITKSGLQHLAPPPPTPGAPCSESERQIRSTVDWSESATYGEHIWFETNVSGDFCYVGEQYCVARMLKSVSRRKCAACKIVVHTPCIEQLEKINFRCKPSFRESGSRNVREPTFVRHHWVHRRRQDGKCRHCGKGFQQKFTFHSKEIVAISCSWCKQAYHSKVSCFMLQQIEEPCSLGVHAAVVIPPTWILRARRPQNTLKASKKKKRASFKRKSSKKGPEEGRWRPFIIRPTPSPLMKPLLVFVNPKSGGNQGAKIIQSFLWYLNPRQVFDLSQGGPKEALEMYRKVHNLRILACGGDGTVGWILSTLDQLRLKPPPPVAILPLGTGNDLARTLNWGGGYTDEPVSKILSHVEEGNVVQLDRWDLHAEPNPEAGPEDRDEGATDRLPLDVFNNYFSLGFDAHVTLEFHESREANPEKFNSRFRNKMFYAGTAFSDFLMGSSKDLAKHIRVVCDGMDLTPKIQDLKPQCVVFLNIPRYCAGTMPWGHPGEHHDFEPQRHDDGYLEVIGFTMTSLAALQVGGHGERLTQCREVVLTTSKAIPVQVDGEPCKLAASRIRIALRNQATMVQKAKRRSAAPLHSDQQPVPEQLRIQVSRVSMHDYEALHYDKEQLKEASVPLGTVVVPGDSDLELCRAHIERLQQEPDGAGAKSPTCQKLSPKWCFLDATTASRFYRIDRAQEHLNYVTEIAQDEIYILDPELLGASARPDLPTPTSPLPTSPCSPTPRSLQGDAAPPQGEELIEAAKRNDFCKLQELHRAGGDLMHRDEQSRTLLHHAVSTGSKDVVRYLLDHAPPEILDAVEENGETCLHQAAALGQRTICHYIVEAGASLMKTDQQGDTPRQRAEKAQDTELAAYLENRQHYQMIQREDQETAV
Chain of hDGKalpha(1-735)-N-His (P23743 whole entry): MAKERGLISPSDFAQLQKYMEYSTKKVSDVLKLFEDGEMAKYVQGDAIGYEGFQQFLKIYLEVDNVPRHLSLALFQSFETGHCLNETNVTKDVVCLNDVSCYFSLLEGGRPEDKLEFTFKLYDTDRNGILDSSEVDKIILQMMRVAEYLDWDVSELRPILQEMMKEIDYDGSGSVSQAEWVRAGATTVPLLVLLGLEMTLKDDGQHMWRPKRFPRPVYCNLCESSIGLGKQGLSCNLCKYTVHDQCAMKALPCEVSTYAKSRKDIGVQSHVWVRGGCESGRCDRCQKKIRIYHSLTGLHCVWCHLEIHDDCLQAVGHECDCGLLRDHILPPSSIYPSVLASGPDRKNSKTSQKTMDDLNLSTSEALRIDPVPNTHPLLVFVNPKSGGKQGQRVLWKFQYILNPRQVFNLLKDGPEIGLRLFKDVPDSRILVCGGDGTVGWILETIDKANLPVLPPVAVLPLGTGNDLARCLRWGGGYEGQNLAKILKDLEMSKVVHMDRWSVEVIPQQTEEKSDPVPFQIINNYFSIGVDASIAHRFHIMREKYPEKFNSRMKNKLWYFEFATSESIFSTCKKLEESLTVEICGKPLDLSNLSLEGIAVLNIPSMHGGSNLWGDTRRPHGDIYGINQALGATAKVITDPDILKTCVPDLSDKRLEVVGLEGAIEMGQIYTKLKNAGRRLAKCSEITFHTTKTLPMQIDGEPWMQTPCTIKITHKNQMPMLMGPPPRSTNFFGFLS

`N[C@H]1C[S+]([O-])c2cc(F)c(-c3noc(N4CCOC(C(F)(F)F)C4)n3)cc2N(Cc2ccc(Cl)cc2)C1=O` (single isomer, unassigned; epimer a) [Example 213]: in assay [1] (5 days, normalized to reference compound A1 as stimulator control = 100%, DMSO neutral control), the “Emax proliferation (% activation)” value was 222 % activation. The pEC50 was 5.86 in assay [1] and 5.49 in assay [3]. The pIC50 in assay [2] was 7.28; in assay [4], 5.67.

In the case of `CN1CCCC(F)(c2nc(-c3cc4c(cc3F)S(=O)(=O)C[C@H](N)C(=O)N4Cc3ccc(Oc4ccccc4)cc3)no2)C1` (stereo partly drawn) [Example 522, (3R)-3-amino-8-fluoro-7-[5-(3-fluoro-1-methyl-3-piperidyl)-1,2,4-oxadiazol-3-yl]-1,1-dioxo-5-[(4-phenoxyphenyl)methyl]-2,3-dihydro-1λ^6,5-benzothiazepin-4-one], the Emax in assay [1] (setting [5]) came out at 161%. Besides, the pEC50 in assay [1] (Homo sapiens, T-cell, 120 h) was 6.11; in assay [3] it was 6.21. Further, the negative logarithm of the IC50 (pIC50) is 6.28 in assay [2] and 5.39 in assay [4].

As to `CC(C)(C)c1nnc(-c2cc3c(cc2F)S(=O)(=O)C[C@H](N)C(=O)N3Cc2ccc(OC3CCCC3)cc2)o1` [Example 253, (3R)-3-amino-7-(5-tert-butyl-1,3,4-oxadiazol-2-yl)-5-[[4-(cyclopentoxy)phenyl]methyl]-8-fluoro-1,1-dioxo-2,3-dihydro-1λ^6,5-benzothiazepin-4-one], in assay [1] (setting [5]), the Emax amounted to 116%. The pEC50 in assay [1] (Homo sapiens, T-cell, 120 h) is 7.39; in assay [3], greater than 7.82. In addition, the negative logarithm of the IC50 (pIC50) in assay [2] was 6.98; in assay [4], 6.70.

On to `CC(C)Oc1ccc(CN2C(=O)[C@@H](N)CS(=O)(=O)c3cc(F)c(-c4noc(C5CN(C)CC(F)(F)C5)n4)cc32)cc1` (stereo partly drawn) [Example 345, (3R)-3-amino-7-[5-(5,5-difluoro-1-methyl-3-piperidyl)-1,2,4-oxadiazol-3-yl]-8-fluoro-5-[(4-isopropoxyphenyl)methyl]-1,1-dioxo-2,3-dihydro-1λ^6,5-benzothiazepin-4-one], for which the Emax in assay [1] (setting [5]) amounted to 152%. For the same molecule, the negative-log IC50 (pIC50) was 6.68 in assay [2] and 6.46 in assay [4].

Turning to `CC(C)Oc1ccc(CN2C(=O)[C@@H](N)CS(=O)(=O)c3cc(F)c(-c4noc(N5CCOC6(CC6)C5)n4)cc32)nc1` [Example 215], the Emax in assay [1] (setting [5]) turned out to be 153%. Moreover, the pEC50 in assay [1] (Homo sapiens, T-cell, 120 h) was 5.66; in assay [3], 5.27. Moreover, the negative logarithm of the IC50 (pIC50) in assay [2] was 6.05; in assay [4], 6.18.

`N[C@H]1CS(=O)(=O)c2ccc(-c3nnc(C4CCCC(F)(F)C4)o3)cc2N(Cc2ccc(Cl)cc2)C1=O` (stereo partly drawn) [Example 373, (3R)-3-amino-5-[(4-chlorophenyl)methyl]-7-[5-(3,3-difluorocyclohexyl)-1,3,4-oxadiazol-2-yl]-1,1-dioxo-2,3-dihydro-1λ^6,5-benzothiazepin-4-one]: the Emax in assay [1] (setting [5]) stood at 100%. Moreover, the pEC50 in assay [1] (Homo sapiens, T-cell, 120 h) was 6.26; in assay [3], 5.93. For the same molecule, the pIC50 in assay [2] was 6.19; in assay [4], 5.85.

On to `CC(C)(C)NC(=O)c1nc(-c2cc3c(cc2F)S(=O)(=O)C[C@H](N)C(=O)N3Cc2ccc(Cl)cc2)no1` [Example 293, 3-[(3R)-3-amino-5-[(4-chlorophenyl)methyl]-8-fluoro-1,1,4-trioxo-2,3-dihydro-1λ^6,5-benzothiazepin-7-yl]-N-tert-butyl-1,2,4-oxadiazole-5-carboxamide], for which the Emax in assay [1] (setting [5]) was determined as 92%. For the same molecule, the pEC50 in assay [1] (Homo sapiens, T-cell, 120 h) was 5.68; in assay [3], 5.48. In addition, the negative-log IC50 (pIC50) in assay [2] is 5.92; in assay [4], 5.94.

Regarding `COCCN1CCCC(F)(c2nnc(-c3ccc4c(c3)N(Cc3ccc(Cl)cc3)C(=O)[C@@H](N)CS4(=O)=O)o2)C1` (stereo partly drawn) [Example 386, (3R)-3-amino-5-[(4-chlorophenyl)methyl]-7-[5-[3-fluoro-1-(2-methoxyethyl)-3-piperidyl]-1,3,4-oxadiazol-2-yl]-1,1-dioxo-2,3-dihydro-1λ^6,5-benzothiazepin-4-one], the Emax in assay [1] (setting [5]) was 108%. Also, the pEC50 in assay [1] (Homo sapiens, T-cell, 120 h) was 5.64; in assay [3] it was 5.31. Besides, the pIC50 in assay [2] is 6.11; in assay [4], 5.45.

Regarding `CC(C)Oc1ccc(CN2C(=O)[C@@H](N)CS(=O)(=O)c3cc(F)c(-c4noc(N5CCOC6(CC6)C5)n4)cc32)cn1` [Example 214, (3R)-3-amino-8-fluoro-5-[(6-isopropoxy-3-pyridyl)methyl]-7-[5-(4-oxa-7-azaspiro[2.5]octan-7-yl)-1,2,4-oxadiazol-3-yl]-1,1-dioxo-2,3-dihydro-1λ^6,5-benzothiazepin-4-one], the Emax in assay [1] (setting [5]) is 275%. Besides, the pEC50 in assay [1] (Homo sapiens, T-cell, 120 h) was 5.67; in assay [3], 5.82. Further, the negative-log IC50 (pIC50) is 7.00 in assay [2] and 6.67 in assay [4].

For `Cc1ccc(S(C)(=O)=O)cc1-c1nc(-c2cc3c(cc2F)S(=O)(=O)C[C@H](N)C(=O)N3Cc2ccc(Cl)cc2)no1` [Example 311, (3R)-3-amino-5-[(4-chlorophenyl)methyl]-8-fluoro-7-[5-(2-methyl-5-methylsulfonyl-phenyl)-1,2,4-oxadiazol-3-yl]-1,1-dioxo-2,3-dihydro-1λ^6,5-benzothiazepin-4-one], the Emax in assay [1] (setting [5]) amounted to 67%. The pEC50 in assay [1] (Homo sapiens, T-cell, 120 h) was 5.96; in assay [3] it was 5.30. Further, the figures for the pIC50 in assay [2] and in assay [4] were 7.16 and 4.36, respectively.

`CC(C)(CO)n1nnc(-c2cc3c(cc2F)S(=O)(=O)C[C@H](N)C(=O)N3Cc2ccc(Cl)cc2)n1` [Example 28, (3R)-3-amino-5-[(4-chlorophenyl)methyl]-8-fluoro-7-[2-(2-hydroxy-1,1-dimethyl-ethyl)tetrazol-5-yl]-1,1-dioxo-2,3-dihydro-1λ^6,5-benzothiazepin-4-one]: in assay [1] (setting [5]), the Emax worked out at 129%. Besides, the pEC50 is 5.90 in assay [1] (Homo sapiens, T-cell, 120 h) and 5.96 in assay [3]. In addition, the pIC50 was 6.17 in assay [2] and 6.29 in assay [4].

For the molecule `CC(C)(C)c1nc(-c2cc3c(cc2F)S(=O)(=O)C[C@H](N)C(=O)N3Cc2ccc(OC3CCCC3)cc2)no1` [Example 350, (3R)-3-amino-7-(5-tert-butyl-1,2,4-oxadiazol-3-yl)-5-[[4-(cyclopentoxy)phenyl]methyl]-8-fluoro-1,1-dioxo-2,3-dihydro-1λ^6,5-benzothiazepin-4-one], the Emax in assay [1] (setting [5]) was determined as 256%. For the same molecule, the pEC50 was 6.68 in assay [1] (Homo sapiens, T-cell, 120 h) and 6.51 in assay [3]. Also, the negative-log IC50 (pIC50) in assay [2] was 6.63; in assay [4] it was 5.79.

For the molecule `Cc1ccc(-c2nnc(-c3ccc4c(c3)N(Cc3ccc(Cl)cc3)C(=O)[C@@H](N)CS4(=O)=O)o2)cn1` [Example 390, (3R)-3-amino-5-[(4-chlorophenyl)methyl]-7-[5-(6-methyl-3-pyridyl)-1,3,4-oxadiazol-2-yl]-1,1-dioxo-2,3-dihydro-1λ^6,5-benzothiazepin-4-one], the Emax in assay [1] (setting [5]) worked out at 69%. The pEC50 in assay [1] (Homo sapiens, T-cell, 120 h) was 5.35; in assay [3], less than 5.00. In addition, the values for the negative-log IC50 (pIC50) in assay [2] and in assay [4] were 5.58 and 4.41, respectively.

Consider `COC(=O)N1CCC(c2nnc(-c3ccc4c(c3)N(Cc3ccc(OC5CCCC5)cc3)C(=O)[C@@H](N)CS4(=O)=O)o2)C1` (stereo partly drawn) [Example 444, methyl 3-[5-[(3R)-3-amino-5-[[4-(cyclopentoxy)phenyl]methyl]-1,1,4-trioxo-2,3-dihydro-1λ^6,5-benzothiazepin-7-yl]-1,3,4-oxadiazol-2-yl]pyrrolidine-1-carboxylate], for which the Emax in assay [1] (setting [5]) was determined as 99%. Further, the pEC50 in assay [1] (Homo sapiens, T-cell, 120 h) is 5.62; in assay [3], less than 5.00. In addition, the negative logarithm of the IC50 (pIC50) in assay [2] is 5.72; in assay [4], 5.21.

Regarding `N[C@H]1CS(=O)(=O)c2ccc(-c3nnc(N4CCOC(C(F)F)C4)o3)cc2N(Cc2ccc(Cl)cc2)C1=O` (stereo partly drawn) [Example 409, (3R)-3-amino-5-[(4-chlorophenyl)methyl]-7-[5-[2-(difluoromethyl)morpholin-4-yl]-1,3,4-oxadiazol-2-yl]-1,1-dioxo-2,3-dihydro-1λ^6,5-benzothiazepin-4-one], the Emax in assay [1] (setting [5]) was found to be 95%. Besides, the pEC50 in assay [1] (Homo sapiens, T-cell, 120 h) is 5.41. In addition, the negative logarithm of the IC50 (pIC50) in assay [2] is 6.10; in assay [4], 5.54.
